Experimental data as given in paper PMC7611678 (ACS catalysis, 2021).
Where two headings read alike, the source gives them in different places. Blank lines part the entries; values can stand above or below the molecule they belong to.

Legend:
HspUPO [1] = conditions: 2 mM H2O2, McIlvaine buffer pH 5, 25 °C; glycosylated enzyme
HspUPO [2] = conditions: 2 mM H2O2, McIlvaine buffer pH 4, 25 °C; glycosylated enzyme
HspUPO [3] = conditions: 2 mM H2O2, McIlvaine buffer pH 7, 25 °C; glycosylated enzyme
HspUPO [4] = conditions: 2 mM H2O2, McIlvaine buffer pH 7, 25 °C; glycosylated enzyme; remark: listed apart in the source
HspUPO [5] = conditions: 2 mM H2O2, McIlvaine buffer pH 7, 25 °C; glycosylated enzyme; remark: listed apart in the source

Compound: COc1cccc(OC)c1O [2,6-Dimethoxyphenol]
Km (HspUPO [1]): 57.5 ± 5 µM

Compound: COc1ccc(CO)cc1OC [2a, 3,4-Dimethoxybenzyl alcohol]
Km (HspUPO [2]): 758 ± 100 µM

Compound: OCc1ccccc1 [Benzyl alcohol]
Km (HspUPO [4]): 680 ± 0.14 µM

The next lines start with the values.

Km (HspUPO [3]): 54 ± 8.16 µM
Compound: c1ccc2[nH]ccc2c1 [6a, Indole]

Km (HspUPO [5]): 18 ± 3.42 µM
Compound: O=[N+]([O-])c1ccc2c(c1)OCO2 [5-Nitro-1,3-benzodioxole]
